The source of these data is patent US5989874A, “Humectant, antistatic agent, dispersant and film-forming agent having polysaccharide as active principle, preparation process of polysaccharides, and Kliebsiella ocytoca TNM-3 strain” (Tayca Corporation, priority 1995, dated 1999).

Series [1] deals with mushroom-derived tyrosinase. In words: Tyrosinase-inhibitory activity. In kind it is biochemical. As to conditions: relative values to kojic acid = 1.0; 0.1 ml of 300 μg/ml solution; L-tyrosine; 25° C., 10 minutes, pH 6.5. On the procedure: Absorbance at 475 nm was measured by an ultraviolet visible spectrophotometer. The above process was repeated without adding the polysaccharide, and the absorbance was measured in the similar way and given as blank. The above process was further carried out using the polysaccharide obtained in Example 3. […] The tyrosinase inhibition rate was calculated from the following equation. […] Tyrosinase inhibition rate=(OD2 -OD1)/OD2 ×100 wherein OD1 is absorbance at 475 nm in case the specimen was added, and OD2 is absorbance at 475 nm in case no specimen was added (blank).

Series [2] relates to skin. As to conditions: 4% (w/v) aqueous solution.
A short description of series [3]: Moisture retainability in low-humidity environment. The note with it: relative humidity 20%, 20° C., 3 days. Type of series: physicochemical.
Method: The above operations were carried out at a constant temperature of 20° C.
The sample weight was measured periodically and he moisture retention percentagewas calculated from the following equation.
Moisture retention percentage(%)=(A-B)/B×100 (wherein A is sample weight when it became constant, and B is dry sample weight).
The nature of series [4]: Moisture retention in high-humidity environment. As to conditions: relative humidity 92.9%, 30° C., 3 days. Type of series: physicochemical. On the procedure:
The above operations were carried out at a constant temperature of 30° C.

In series [1], `O=c1cc(CO)occ1O` [Kojic acid, kojic acid] returned a Tyrosinase inhibition rate of 1.0.

Molecule `CCCCCCCCCCCCOS(=O)(=O)[O-].[Na+]` [sodium lauryl sulfate] displayed a primary irritation index in series [2] of 4.0.

`OCC(O)CO` [Glycerol, glycerol] displayed a Moisture retention in series [3] of 6.9%. The “Material retention percentage (moisture retention percentage)” value in series [4] came to 139.1%.
